From patent US8846710B2, “Method of preferentially inducing the biosynthesis of interferon” (3M Innovative Properties Company, priority 2005, dated 2014)
Where two headings read alike, the source gives them in different places.

What was measured:
interferon (α) (IFN-α) = assay: Cytokine induction in human cells: IFN-α secreted by PBMC into culture media (ELISA); assay type: cell-based; conditions: for Maximal Response IFN / Minimum Effective Concentration IFN / minimal effective concentration: human PBMC; for Maximal Response IFN / Minimum Effective Concentration IFN: median where tested in more than one experiment; for minimal effective concentration / Maximal Response (pg/mL) IFN: Table 10; for minimal effective concentration: lowest tested concentration inducing IFN-α over usually 20 pg/mL, median where more than one experiment, read-out: Minimum Effective Concentration (μM) IFN; for Maximal Response (pg/mL) IFN: maximal response in dose response curve, * = below experimental background level, median
Source text: (§1) Cytokine Induction in Human Cells
(§2) An in vitro human blood cell system is used to assess cytokine induction. Activity is based on the measurement of interferon (α) and tumor necrosis factor (α) (IFN-α and TNF-α, respectively) secreted into culture media as described by Testerman et. al. in “Cytokine Induction by the Immunomodulators Imiquimod and S-27609”, Journal of Leukocyte Biology, 58, 365-372 (September, 1995).
(§3) Blood Cell Preparation for Culture
(§4) Whole blood from healthy human donors is collected by venipuncture into vacutainer tubes or syringes containing EDTA. Peripheral blood mononuclear cells (PBMC) are separated from whole blood by density gradient centrifugation using HISTOPAQUE-1077 (Sigma, St. Louis, Mo.) or Ficoll-Paque Plus (Amersham Biosciences Piscataway, N.J.). Blood is diluted 1:1 with Dulbecco's Phosphate Buffered Saline (DPBS) or Hank's Balanced Salts Solution (HBSS). Alternately, whole blood is placed in Accuspin (Sigma) or LeucoSep (Oreiner Bio-One, Inc., Longwood, Fla.) centrifuge frit tubes containing density gradient medium. The PBMC layer is collected and washed twice with DPBS or HBSS and re-suspended at 4×10^6 cells/mL in RPMI complete. The PBMC suspension is added to 96 well flat bottom sterile tissue culture plates containing an equal volume of RPMI complete media containing test compound.
(§5) The compounds are solubilized in dimethyl sulfoxide (DMSO). The DMSO concentration should not exceed a final concentration of 1% for addition to the culture wells. The compounds are generally tested at concentrations ranging from 30-0.014 μM. Controls include cell samples with media only, cell samples with DMSO only (no compound), and cell samples with reference compound.
(§6) The solution of test compound is added at 60 μM to the first well containing RPMI complete and serial 3 fold dilutions are made in the wells. The PBMC suspension is then added to the wells in an equal volume, bringing the test compound concentrations to the desired range (usually 30-0.014 μM). The final concentration of PBMC suspension is 2×10^6 cells/mL. The plates are covered with sterile plastic lids, mixed gently and then incubated for 18 to 24 hours at 37° C. in a 5% carbon dioxide atmosphere.
(§7) Following incubation the plates are centrifuged for 10 minutes at 1000 rpm (approximately 200×g) at 4° C. The cell-free culture supernatant is removed and transferred to sterile polypropylene tubes. Samples are maintained at −30 to −70° C. until analysis. The samples are analyzed for IFN-α by ELISA and for TNF-α by IGEN/BioVeris Assay.
(§8) Interferon (α) and Tumor Necrosis Factor (α) Analysis
IFN-α concentration is determined with a human multi-subtype calorimetric sandwich ELISA (Catalog Number 41105) from PBL Biomedical Laboratories, Piscataway, N.J. Results are expressed in pg/mL.
(§9) In total, the data output of the assay consists of concentration values of TNF-α and IFN-α (y-axis) as a function of compound concentration (x-axis).
Analysis of the data has two steps. First, the greater of the mean DMSO (DMSO control wells) or the experimental background (usually 20 pg/mL for IFN-α and 40 pg/mL for TNF-α) is subtracted from each reading. If any negative values result from background subtraction, the reading is reported as “*”, and is noted as not reliably detectable. In subsequent calculations and statistics, “*”, is treated as a zero. Second, all background subtracted values are multiplied by a single adjustment ratio to decrease experiment to experiment variability. The adjustment ratio is the area of the reference compound in the new experiment divided by the expected area of the reference compound based on the past 61 experiments (unadjusted readings). […] The reference compound used is 2-[4-amino-2-ethoxymethyl-6,7,8,9-tetrahydro-α,α-dimethyl-1H-imidazo[4,5-c]quinolin-1-yl]ethanol hydrate (U.S. Pat. No. 5,352,784; Example 91) and the expected area is the sum of the median dose values from the past 61 experiments. […]

[1] = tested on: tumor necrosis factor (α) (TNF-α); assay: Cytokine induction in human cells: TNF-α secreted by PBMC into culture media (ORIGEN M-Series immunoassay); assay type: cell-based; design: key to Maximal Response (pg/mL) TNF / Maximal Response TNF: If any negative values result from background subtraction, the reading is reported as “*”, and is noted as not reliably detectable; conditions: for Minimum Effective Concentration TNF / Maximal Response TNF / minimal effective concentration: human PBMC; for Minimum Effective Concentration TNF: median where tested in more than one experiment; for Maximal Response TNF / Maximal Response (pg/mL) TNF: median; for minimal effective concentration: lowest tested concentration inducing TNF-α over usually 40 pg/mL, median where more than one experiment, read-out: Minimum Effective Concentration (μM) TNF; for Maximal Response (pg/mL) TNF: maximal response in dose response curve
Source text: as §1, §2, §3, §4, §5, §6, §7, §8
The TNF-α concentration is determined by ORIGEN M-Series Immunoassay and read on an IGEN M-8 analyzer from BioVeris Corporation, formerly known as IGEN International, Gaithersburg, Md. The immunoassay uses a human TNF-α capture and detection antibody pair (Catalog Numbers AHC3419 and AHC3712) from Biosource International, Camarillo, Calif. Results are expressed in pg/mL.
as §9
Analysis of the data has two steps. First, the greater of the mean DMSO (DMSO control wells) or the experimental background (usually 20 pg/mL for IFN-α and 40 pg/mL for TNF-α) is subtracted from each reading. If any negative values result from background subtraction, the reading is reported as “*”, and is noted as not reliably detectable. In subsequent calculations and statistics, “*”, is treated as a zero. Second, all background subtracted values are multiplied by a single adjustment ratio to decrease experiment to experiment variability. The adjustment ratio is the area of the reference compound in the new experiment divided by the expected area of the reference compound based on the past 61 experiments (unadjusted readings). […]

[2] = Table 11, * = TNF below experimental background of 40 pg/mL
[3] = Table 10, * = below experimental background level
[4] = Table 12, * = below the experimental background of 40 pg/mL

Row | SMILES | Maximal Response IFN (interferon (α) (IFN-α); Table 11) [pg/mL] | Minimum Effective Concentration IFN (interferon (α) (IFN-α); Table 11) [µM] | Minimum Effective Concentration TNF ([1]; Table 11) [µM] | Maximal Response TNF [1, 2] | minimal effective concentration (interferon (α) (IFN-α)) [µM] | minimal effective concentration ([1]; Table 10) [µM] | Maximal Response (pg/mL) TNF [1, 3] | further results
1 | CCNC(=O)NCCn1c(CCOC)nc2c(N)nc3ccccc3c21 [Analog 104] | 2587 | 0.014 | 0.12 | 7719 pg/mL |  |  |  | 
2 | CCCC(=O)NCCCCn1c(CCC)nc2c(N)nc3cc(-c4cccnc4)ccc3c21 [Analog 32] |  |  |  |  | 0.12 | 0.37 | 1647 pg/mL | Maximal Response (pg/mL) IFN (interferon (α) (IFN-α)): 862 pg/mL
3 | CCCc1nc2c(N)nc3cc(-c4cccnc4)ccc3c2n1CCCCNC(=O)NC1CCCC1 [Analog 34] |  |  |  |  | 0.014 | 0.37 | 9019 pg/mL | Maximal Response (pg/mL) IFN (interferon (α) (IFN-α)): 649 pg/mL
4 | Cc1nc2c(N)nc3ccccc3c2n1CCCNC(=O)NC(C)C [Analog 81] | 1134 | 3.33 | 10 | 490 pg/mL |  |  |  | 
5 | CCOCc1nc2c(N)nc3cc(-c4cncc(CO)c4)ccc3c2n1CC1CCCCC1 [Analog 45] |  |  |  |  | 0.014 | 1.11 | 2865 pg/mL | Maximal Response (pg/mL) IFN (interferon (α) (IFN-α)): 1062 pg/mL
6 | CCOCc1nc2c(N)nc3ccccc3c2n1CCCCNS(C)(=O)=O [Analog 51] | 2581 | 0.04 | 1.11 | 1439 pg/mL |  |  |  | 
7 | COCCc1nc2c(N)nc3ccccc3c2n1CCCCNS(=O)(=O)c1ccc(F)cc1 [Analog 113] | 6032 | 0.014 | 0.04 | 3786 pg/mL |  |  |  | 
8 | CCCc1nc2c(N)nc3ccccc3c2n1CCNS(C)(=O)=O [Analog 70] | 2003 | 30 | 10 | 11432 pg/mL |  |  |  | 
9 | CS(=O)(=O)NCCn1c(CO)nc2c(N)nc3cccnc3c21 [Example 146, N-[2-(4-Amino-2-hydroxymethyl-1H-imidazo[4,5-c][1,5]naphthyridin-1-yl)ethyl]methanesulfonamide] |  |  |  |  |  |  |  | Maximal Response IFN (interferon (α) (IFN-α); Table 12): 1520 pg/mL; Maximal Response TNF [1, 4]: *
10 | Cc1nc2c(N)nc3cccnc3c2n1CC(C)C [Analog 133, 2-methyl-1-(2-methylpropyl)-1H-imidazo[4,5-c][1,5]naphthyridin-4-amine] |  |  |  |  |  |  |  | Maximal Response IFN (interferon (α) (IFN-α); Table 12): 1117 pg/mL; Maximal Response TNF [1, 4]: 699 pg/mL
11 | Cc1nc2c(N)nc3ccccc3c2n1CCCCCS(C)(=O)=O [Analog 73] | 1294 | 0.37 | 3.33 | 771 pg/mL |  |  |  | 
12 | CC(C)(F)Cn1c(CO)nc2c(N)nc3cccnc3c21 [Example 551, [4-Amino-1-(2-fluoro-2-methylpropyl)-1H-imidazo[4,5-c][1,5]naphthyridin-2-yl]methanol] |  |  |  |  |  |  |  | Maximal Response IFN (interferon (α) (IFN-α); Table 12): 1833 pg/mL; Maximal Response TNF [1, 4]: 1922 pg/mL
13 | COCCc1nc2c(N)nc3ccccc3c2n1CCCCNC(=O)c1cnc2ccccc2c1 [Analog 115] | 7545 | 0.014 | 0.04 | 9340 pg/mL |  |  |  | 
14 | CCOCc1nc2c(N)nc3ccccc3c2n1CC(C)(C)NC(=O)NC(C)C [Analog 108] | 966 | 0.37 | 1.11 | 10587 pg/mL |  |  |  | 
15 | CCOCc1nc2c(N)nc3cc(-c4cccnc4)ccc3c2n1CC1CCN(C(=O)C(C)C)CC1 [Analog 18] |  |  |  |  | 0.12 | 0.37 | 1449 pg/mL | Maximal Response (pg/mL) IFN (interferon (α) (IFN-α)): 2979 pg/mL
16 | Nc1nc2cc(-c3cccnc3)ccc2c2c1nc(CCO)n2CCCN1CCCC1=O [Example 160] |  |  |  |  | 30 | >30 | * | Maximal Response (pg/mL) IFN (interferon (α) (IFN-α)): 109 pg/mL
17 | Nc1nc2ccccc2c2c1nc(CCO)n2CCCCNC(=O)N1CCOCC1 [Example 115] | 8361 | 1.11 | >30 | * |  |  |  | 
18 | CCc1nc2c(N)nc3ccccc3c2n1CCCCCS(C)(=O)=O [Analog 74] | 1062 | 0.12 | 1.11 | 1545 pg/mL |  |  |  | 
19 | CS(=O)(=O)NCCCCn1c(CCO)nc2c(N)nc3ccccc3c21 [Example 3, N-{4-[4-Amino-2-(2-hydroxyethyl)-1H-imidazo[4,5-c]quinolin 1-yl]butyl}methanesulfonamide] | 2340 |  |  | * |  |  |  | 
20 | Nc1nc2cc(-c3cccnc3)ccc2c2c1nc(CO)n2CCCCNC(=O)C1CCCC1 [Example 198] |  |  |  |  |  |  | 410 pg/mL | Maximal Response (pg/mL) IFN (interferon (α) (IFN-α)): 2745 pg/mL
21 | COCCc1nc2c(N)nc3ccccc3c2n1CCCNS(=O)(=O)c1ccc(C)cc1 [Analog 109] | 638 | 0.04 | 0.37 | 6169 pg/mL |  |  |  | 
22 | Cc1ccc(-c2ccc3c(c2)nc(N)c2nc(CO)n(CC(C)(C)O)c23)cc1 [Example 165] |  |  |  |  | 0.37 | 0.37 |  | 
23 | CC(C)(O)Cn1c(CO)nc2c(N)nc3cc(-c4cccnc4)ccc3c21 [Example 163] |  |  |  |  | 0.37 | 10 | 51 pg/mL | minimal effective concentration ([1]; Table 9): >30 µM; Maximal Response (pg/mL) TNF ([1]; Table 9, * = below experimental background level of 40 pg/mL): *
